From patent US8835403B2, “Algin oligosaccharides and the derivatives thereof as well as the manufacture and the use of the same” (priority 2004, dated 2014)

Legend:
Aβ1-40 fibril = Aβ1-40 fibril (Homo sapiens, UniProt P05067); assay: Destability of preformed Aβ1-40 fibril (TEM); format: biochemical; details: Aβ1-40 aged 7 d, then heparin for additional 24 h (FIG. 10B)
Experimental: 1 mg/ml of distilled water-resolved Aβ1-40 is aged at 37° C. for 7d, after which it is exposed to 6-mer for 3 days.

Aβ1-40 = Aβ1-40 (Homo sapiens, UniProt P05067); assay: Conformation of Aβ1-40 by CD spectra; format: biochemical; details: heparin (FIG. 11B)
Aβ1-40, sequence (P05067 672-711 limits assumed): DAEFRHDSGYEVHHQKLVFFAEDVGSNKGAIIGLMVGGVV
Experimental: CD spectra (J-[…], JASCO, Japan) of monomeric Aβ1-40 (250 μg/ml in TBS (100 mM Tris, 50 mM NaCl, pH7.4)) incubated at 37° C. for 12 h is mainly characterized by β-sheet secondary structure (FIG. 11A).

[1] = tested on: AD mice induced by Aβ1-40; assay: Morris water maze test of AD mice induced by Aβ1-40; format: in vivo
Experimental: (§1) Male Balb/c mice (18-22 g, purchased from Laboratory Centre of Shandong University) are weighed and randomly assigned to six groups as follows: a control group, a model group, a low-concentration (15 mg/kg) 6-mer-treated group, a middle-concentration (30 mg/kg) 6-mer-treated group, a high-concentration (60 mg/kg) 6-mer-treated group, and a Huperzine A-treated (HBY, with a concentration of 0.2 mg/kg) group. The mice were oral administered with corresponding drugs on day 3 after grouping. The drugs were administered once a day consecutively with a dosage of 0.5 ml/20 g until the experiment is completed. The mice of control and model groups were simultaneously administered with an equivalent amount of normal saline.
On the 8th day after drug administration, mice are injected with aged Aβ1-40 except the vehicle group as the method of reference (Jhoo J H et al., β-amyloid (1-42)-induced learning and memory deficits in mice: involvement of oxidative burdens in the hippocampus and cerebral cortex. Behavioural Brain Research (2004) 155: 185-196) to induce the AD model. Aged Aβ1-40 solution is injected into the right cerebral ventricle. […] However, on the 1st day of test, this increased escape latency is shortened in all drug-treated groups except the group treated with 15 mg/kg of 6-mer. And the escape latency of 60 mg/kg 6-mer-treated group has statistical significance compared with that of the model group (P<0.05). On the 2nd and 3rd day of test, the escape latency of all drug-treated groups are shortened, wherein that of 60 mg/kg 6-mer-treated group and HBY-treated group have statistical significance compared with that of the model group (P<0.05).
On the 4th day of Morris water maze test, the original plate is removed and the percentage of time of mice staying at the phase of original plate within 60 s is recorded.

[2] = tested on: AD mice induced by Aβ1-40; assay: Step-through passive avoidance task of AD mice induced by Aβ1-40; format: in vivo; details: HBY 0.2 mg/kg
Experimental: as §1
On the 25th day after Aβ injection, mice are further trained for step-through passive avoidance task. In the task, each mouse is placed in the illuminated compartment of the apparatus, facing away from the dark compartment, and the door is opened, allowing access to the dark compartment. Once the mouse enters the dark compartment, it receives an inescapable electric shock on the feet (36 V) through the stainless steel grid floor. The test is similarly performed after 24 h. The entry time of each mouse into the dark chamber (step-through latency, maximum testing limited to 3 min) and the number of entries into the dark compartment (number of errors) are recorded.
Each group has 8 animals. The data are presented as mean±SE. The symbol # means significant difference compared with the control group (P<0.05). * means significant difference compared with the model group (P<0.05). The step-through latency of Aβ1-40-treated group is shortened (P<0.01) and the error number is increased (P<0.05) compared with that of the control group, indicating the successful establishment of AD mice.

ChAT = assay: Cerebral cortex ChAT activity of Aβ1-40-induced AD mice; format: in vivo; details: HBY 0.2 mg/kg
SOD = SOD activity of cerebral cortex and hippocampus of Aβ1-40-induced AD mice; format: in vivo; details: HBY 0.2 mg/kg
MDA = MDA content of cerebral cortex and hippocampus of Aβ1-40-induced AD mice; format: in vivo; details: HBY 0.2 mg/kg
GSH-PX = GSH-PX activity in cerebral cortex and hippocampus of Aβ1-40-induced AD mice; format: in vivo; details: HBY 0.2 mg/kg
Experimental: (§2) Following the behavioral test, rats are decapitated. Cerebral cortex and hippocampus are dissected on ice immediately, and stored at −80° C. after quick freezing in liquid nitrogen for 1 hour. MDA, SOD, GSH-PX, Na^+, K^+-ATPase, AchE and CHAT activities in the brain regions are determined using the respective kits. The homogenates of cerebral cortex and hippocampus are prepared with saline with a final concentration of 10% and 5%. The supernatant were obtained after centrifuging at 3600 rpm to test MDA, CuZn-SOD, GSH-PX, Na^+K^+-ATPase, AchE, and CHAT activities. The activity of ChAT is determined with isotope-labeled method. The other indexes and amount of total proteins are tested with the respective kits supplied by Nanjing Jiancheng Bioengineering Institute.
The GSH-PX activity in cerebral cortex and hippocampus is decreased after usage of Aβ with significant difference to the control group in hippocampus (p<0.05).

Na+, K+-ATPase = Na+, K+-ATPase activity in cerebral cortex and hippocampus of Aβ1-40-induced AD mice; format: in vivo; details: HBY 0.2 mg/kg
Experimental: as §2

[3] = tested on: diabetic mice induced by STZ; assay: Blood glucose of diabetic mice induced by streptozotocin (STZ); format: in vivo; details: dimethyldiguanide 5 mg/kg for 10 days, blood on 11th day; STZ 150 mg/kg i.p.
Experimental: Sixty male NIH mice (weighed 18-22 g) are randomly divided to control, model, 50, 150, 450 mg/kg 6-mer-treated and 5 mg/kg dimethyldiguanide-treated groups. The mice are injected intraperitoneally with 150 mg/kg STZ except control group at the 1st day. Then the mice are given accordingly drugs consecutively for 10 days and eyeballs are picked out to extract blood on the 11th day. The blood is taken to measure the glucose concentration.

Aβ1-40 fibril, sequence (P05067 672-711 limits assumed): as above

For heparin [reference compound], the “effect on preformed Aβ1-40 fibers (TEM)” value (Aβ1-40 fibril) was “become much denser and longer” and the “conformational transition of Aβ1-40 to β-sheet structure (CD)” value (Aβ1-40) was “significantly accelerates the conformational transition to β-sheet structure”.

With `C/C=C1\[C@H]2C=C(C)C[C@]1(N)c1ccc(=O)[nH]c1C2` [HBY, Huperzine A, reference compound] the “Escape latency (s) 1st day” value ([1]; HBY 0.2 mg/kg oral once a day, 1st day of test) was 76.29 ± 9.74 s, the “Escape latency (s) 2nd day” value ([1]; HBY 0.2 mg/kg oral once a day, 2nd day of test) was 64.58 ± 10.36 s and the “Escape latency (s) 3rd day” value ([1]; HBY 0.2 mg/kg oral once a day, 3rd day of test) was 63.83 ± 10.12 s. For the same compound, the “Latency bias(%)” value ([1]; probe trial, 4th day, within 60 s, HBY 0.2 mg/kg) was 22.18 ± 5.93%, the step-through latency ([2]; vs model group (FIG. 5)) was “significantly prolonged” and the number of errors ([2]; vs model group (FIG. 6)) was “significantly reduced”. For the same compound, the “ChAT activity (pmol/mg prot./min)” value (ChAT) was 100.70 ± 5.99 pmol/mg prot./min, the “SOD activity (NU/mg prot.) cerebral cortex” value (SOD; cerebral cortex) was 48.95 ± 2.13 NU/mg prot and the “SOD activity (NU/mg prot.) hippocampus” value (SOD; hippocampus) was 69.91 ± 6.51 NU/mg prot. The “MDA content (nmol/ml) cerebral cortex” value (MDA; cerebral cortex) was 1.61 ± 0.13 nmol/mL, the “MDA content (nmol/ml) hippocampus” value (MDA; hippocampus) was 2.26 ± 0.39 nmol/mL and the “GSH-PX (U/mg prot.) cerebral cortex” value (GSH-PX; cerebral cortex) was 8.85 ± 1.33 U/mg prot. The “GSH-PX (U/mg prot.) hippocampus” value (GSH-PX; hippocampus) was 5.29 ± 0.99 U/mg prot, the “ATPase activity (μmol Pi/mg prot./hour) cerebral cortex” value (Na+, K+-ATPase; cerebral cortex) was 0.91 ± 0.05 μmol Pi/mg prot./hour and the “ATPase activity (μmol Pi/mg prot./hour) hippocampus” value (Na+, K+-ATPase; hippocampus) was 2.35 ± 10.43 μmol Pi/mg prot./hour.

`CN(C)C(=N)NC(=N)N` [Dimethyldiguanide, dimethyldiguanide, reference compound] was tested, and the “Blood glucose concentration” value [3] was 201.6 ± 58.9 mg/dL.
